Test results: patent publication US7094869B2, “Low molecular weight peptidomimetic growth hormone secretagogues” (Genentech, Inc., priority 1994, dated 2006)
Where two headings read alike, the source gives them in different places. Non-standard residues stand in square brackets, D forms with d. Residues, ends and D or L forms follow the SMILES beside them. ξ: configuration not given here. *: point of attachment. dNMe2Nal = CN[C@H](Cc1ccc2ccccc2c1)C(=O)O; 2Nal = N[C@@H](Cc1ccc2ccccc2c1)C(=O)O; d2Nal = N[C@H](Cc1ccc2ccccc2c1)C(=O)O; ξNMe2Nal = CNC(Cc1ccc2ccccc2c1)C(=O)O; hPhe = N[C@@H](CCc1ccccc1)C(=O)O; Ac6c = NC1(C(=O)O)CCCCC1; Orn = NCCC[C@H](N)C(=O)O; Inp = O=C(O)C1CCNCC1; ξK = NCCCCC(N)C(=O)O; Ahp = NCCCCCCC(=O)O; NHtBu = CC(C)(C)N*; Ava = NCCCCC(=O)O; βAla = NCCC(=O)O

Legend:
rat pituitary cells = rat pituitary cells (Rattus norvegicus, UniProt O08725); details: read-out: PIT Cell EC50, GH release, 15 min incubation
Procedure: Pituitaries from ten rats were removed, the posterior pituitary discarded and the anterior pituitary placed in Hanks' Balanced Salt Solution (HBSS: without calcium chloride, w/o magnesium chloride, w/o magnesium sulfate; Gibco) containing 20 mM HEPES (Gibco) and 100 U/ml penicillin streptomycin (PS: JRH Biosciences). Under sterile conditions, pituitaries were rinsed twice then minced into small fragments with a razor blade. […] After the incubation, fragments were triturated to yield small clumps and single cells. The cells were centrifuged 1000× g for 5 min, resuspended, counted and plated at a final cell concentration of 100,000 cells/ml. Incubation media was DME low glucose media w/NaHCO3 (Gibco) containing 20 mM hepes, 100 U/ml PS and 10% FBS (Hyclone A-111-L). Cells were plated at 0.5 ml per well in 48 well plates (Falcon) and incubated at 37° C. in 5% C02 for three days. For challenges to determine release of other pituitary hormones cells were plated at 200,000 cells per ml with 2 ml per well of a Swell plate (Corning). Challenge: A (inip)bbFK-NH2 stock (or other GHRP) concentration of 1 mM was made in DMSO and diluted with warmed media approximately 30 min prior to use. The highest concentration of DMSO in media was 0.1%. Stock solutions (1 mM) of rat GHRH, somatostatin (Sigma) and GHRP antagonist HwkWfK were made fresh in media and diluted appropriately. The media used in all challenges and washing steps was DME low glucose with 20 mM Hepes, 100 U/ml PS, 10% FBS. Media was warmed to 37° C. and gassed by placing it into the incubator prior to challenge. On day three, the media was discarded and fresh media (approximately 1 ml) added for the first of three washes. After the last wash, the plate was placed back in the incubator for a 15 min pre-incubation. Then cells were washed 2× (with warmed and gassed media) and fresh 0.5 ml media were added for the second 15 min. pre-incubation. After the second pre-incubation cells were washed 2× as above and 0.5 ml of control and test solutions were added for a final 15 min incubation. After this incubation, the media were removed for subsequent GH ELISA. GH ELISA: A two-site ELISA was used to determine rat GH concentration in the media. […] After blocking and washing, standard (rat GH reference preparation: Parlow) and challenge media is diluted 1:20 prior to GH assay were added for a 1 hr room temperature incubation. STATISTICS: The mean for each group was determined and analyzed by one-way analysis of variance with a post-hoc Student-Newman-Keuls. Significance is defined as P<0.05. The EC50 was calculated using a 4-parameter curve-fit program (Kaleidagraph). Three to four independent EC50s were used to derive the mean and SEM. RIA of pituitary hormones: LH, FSH, TSH, and Prolactin were determined with commercially available kits from Amersham, and ACTH levels were determined by a RIA kit from ICN. CALCIUM FLUX EXPERIMENT: Pituitary cells were plated on fibronectin (Collaborative Research) coated two-chambered slide wells (Nunc). After four days in monolayer culture cells were rinsed three times with HBSS (Gibco) in 1% BSA and 15 mM HEPES and then incubated for 30 min at 37° C. with 5 μM Indo-1 AM (Molecular Probes, Eugene) in HBSS also containing 1% pluronic F127 (Molecular Probes). The cells were rinsed once and fresh media added for RT incubation. […] C^++ flux was imaged with a Meridian ACAS 570 using stage scanning at 21 second intervals.

growth hormone secretion = assay: GHRP induced growth hormone secretion, intravenous administration (Rat IV); format: in vivo; details: iv injection, serum GH 10 min after injection
Procedure: Immature weanling female Sprague Dawley rats were purchased from Charles River Labs (Portage, […].) and group housed with water and food available ad libitum. When the rats were 24-30 days old (weighing 50-90 g) they were anesthetized with pentobarbitone (4 mg in 0.5 ml, approximately 60 mg/kg) given by intraperitoneal injection. The rats were then placed briefly on a heated pad, to distend their tail veins, and given an intravenous tail vein injection of the peptides 20 minutes after receiving the anesthetic. The intravenous injection was of 0.1 ml using a 1 ml syringe. The injections contained graded doses of peptides or the vehicle (vehicle for all peptides given intravenously was a buffer of 20 mM sodium acetate, 45 g/l mannitol, pH 5.0). Ten minutes after the intravenous injection blood was taken by cardiac puncture, using a 3 ml syringe, and the rats were then sacrificed.
The blood was then clotted on ice, centrifuged, serum decanted and frozen for subsequent analysis using the rat GH ELISA described elsewhere in the application. For the rat GH ELISA the serum was diluted 1:50 or 1:250, depending on the expected serum GH concentrations achieved, and assayed in duplicate.

[1] = Table IV, formula III compounds
[2] = Table III, formula IV compounds

Chain of rat pituitary cells (O08725 whole entry, the tested form may be a part): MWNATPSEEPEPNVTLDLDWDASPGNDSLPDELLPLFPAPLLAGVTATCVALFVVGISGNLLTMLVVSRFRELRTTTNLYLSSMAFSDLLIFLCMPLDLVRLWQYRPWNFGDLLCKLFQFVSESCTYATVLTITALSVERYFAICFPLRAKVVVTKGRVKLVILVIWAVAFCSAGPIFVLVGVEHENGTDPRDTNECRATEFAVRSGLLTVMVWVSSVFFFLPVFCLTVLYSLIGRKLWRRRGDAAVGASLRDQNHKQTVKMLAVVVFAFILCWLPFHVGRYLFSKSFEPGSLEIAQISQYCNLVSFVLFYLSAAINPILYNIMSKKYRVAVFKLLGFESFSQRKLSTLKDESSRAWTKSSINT

Structure (SMILES)	EC50 (rat pituitary cells; [1]) [nM]	RAT IV ED50 (growth hormone secretion; Table IV) [µg]	EC50 (rat pituitary cells; [2]) [nM]	RAT IV ED50 (growth hormone secretion; Table III) [µg]	further results
NCCCCC(=O)N[C@H](Cc1ccc2ccccc2c1)C(=O)N[C@H](Cc1ccc2ccccc2c1)C(=O)N[C@@H](Cc1ccccc1)C(N)=O [(Ava) b b F amide] (H-[Ava][d2Nal][d2Nal]F-NH2)	17.1	100			
NCCCCC(=O)N[C@H](Cc1ccc2ccccc2c1)C(=O)N[C@H](Cc1ccc2ccccc2c1)C(=O)N[C@@H](Cc1ccccc1)C(=O)N[C@H](CCCCN)C(N)=O [(Ava) b b F k amide] (H-[Ava][d2Nal][d2Nal]F[dK]-NH2)			17	33.3	
NCCCCC(=O)N[C@H](Cc1ccc2ccccc2c1)C(=O)N[C@H](Cc1ccc2ccccc2c1)C(=O)N[C@@H](Cc1ccccc1)C(=O)N[C@H](CC(N)=O)C(N)=O [(Ava) b b F n amide] (H-[Ava][d2Nal][d2Nal]F[dN]-NH2)			10	12.5	
NCCCCC(=O)N[C@H](Cc1ccc2ccccc2c1)C(=O)N[C@H](Cc1ccc2ccccc2c1)C(=O)N[C@@H](CCc1ccccc1)C(=O)N[C@@H](CCCCN)C(N)=O [(Ava) b b hF K amide] (H-[Ava][d2Nal][d2Nal][hPhe]K-NH2)			5	50	
CN(C(=O)[C@@H](Cc1ccc2ccccc2c1)NC(=O)CCCCN)[C@H](Cc1ccc2ccccc2c1)C(=O)N[C@@H](Cc1ccccc1)C(=O)N[C@@H](CCCCN)C(N)=O [(Ava) b nmb F K amide] (H-[Ava][d2Nal][dNMe2Nal]FK-NH2)			3.8	100	
NCCCCC(=O)N[C@H](Cc1ccc2ccccc2c1)C(=O)N[C@H](Cc1c[nH]c2ccccc12)C(=O)N[C@@H](Cc1ccccc1)C(=O)N[C@@H](CCCCN)C(N)=O [(Ava) b w F K amide] (H-[Ava][d2Nal][dW]FK-NH2)			4.6	11.8	
NCCCCNC(=O)[C@H](Cc1ccc2ccccc2c1)NC(=O)[C@H](Cc1ccc2ccccc2c1)NC(=O)[C@@H](Cc1ccccc1)NC(=O)CCCCN [(Ava) f B B bam, (5-aminovaleryl)-DPhe-βNal-βNal-[N-(4-aminobutyl)] amide]					EC50 (rat pituitary cells; Table VI, retroinverso compounds of formula V): 22 nM; RAT IV ED50 (growth hormone secretion; Table VI): 100 µg
NCCCCC(=O)N[C@H](Cc1ccccc1)C(=O)N[C@H](Cc1c[nH]c2ccccc12)C(=O)N[C@@H](Cc1ccccc1)C(N)=O [(Ava) f w F amide] (H-[Ava][dF][dW]F-NH2)	> 300	1000			
CN(C(=O)CCCCN)C(Cc1ccc2ccccc2c1)C(=O)N[C@H](Cc1ccc2ccccc2c1)C(=O)N[C@@H](Cc1ccccc1)C(=O)NC(CCCCN)C(N)=O (stereo partly drawn) [(Ava) nmb b F K amide, (5-aminovaleryl)-(N-Me-DβNal)-DβNal-Phe-Lys-amide] (H-[Ava][ξNMe2Nal][d2Nal]F[ξK]-NH2)			1.8	0.4	
CN(C(=O)CCCCN)[C@H](Cc1ccc2ccccc2c1)C(=O)N[C@H](Cc1ccc2ccccc2c1)C(=O)N[C@@H](Cc1ccccc1)C(N)=O [(Ava) nmb b F amide] (H-[Ava][dNMe2Nal][d2Nal]F-NH2)	1.6	20			
NCCCCC(=O)N[C@H](Cc1c[nH]c2ccccc12)C(=O)N[C@H](Cc1c[nH]c2ccccc12)C(=O)N[C@@H](Cc1ccccc1)C(=O)N[C@@H](CCCCN)C(N)=O [(Ava) w w F K amide] (H-[Ava][dW][dW]FK-NH2)			13	5	
NCCCCCCC(=O)N[C@H](Cc1ccc2ccccc2c1)C(=O)N[C@H](Cc1ccc2ccccc2c1)C(=O)N[C@@H](Cc1ccccc1)C(=O)N[C@@H](CCCCN)C(N)=O [(ahp) b b F K amide] (H-[Ahp][d2Nal][d2Nal]FK-NH2)			34.3	100	
COC(=O)[C@@H](Cc1ccc2ccccc2c1)NC(=O)[C@@H](Cc1ccc2ccccc2c1)NC(=O)C1CCNCC1 [(imp) b b Me ester] (H-[Inp]-[d2Nal]-[d2Nal]-OMe)					EC50 (rat pituitary cells; Table V, formula II compounds): 5 nM; RAT IV ED50 (growth hormone secretion; Table V): 100 µg
NC[C@H](Cc1ccc2ccccc2c1)NC(=O)[C@@H](Cc1ccc2ccccc2c1)NC(=O)C1CCNCC1 [(inip) b Bmn]					EC50 (rat pituitary cells; Table V, formula II compounds): 36 nM; RAT IV ED50 (growth hormone secretion; Table V): 20 µg
NC(=O)C1(NC(=O)[C@@H](Cc2ccc3ccccc3c2)NC(=O)[C@@H](Cc2ccc3ccccc3c2)NC(=O)C2CCNCC2)CCCCC1 [(inip) b b Abx amide] (H-[Inp][d2Nal][d2Nal][Ac6c]-NH2)	13	100			
NC(=O)[C@H](Cc1ccc2ccccc2c1)NC(=O)[C@@H](Cc1ccc2ccccc2c1)NC(=O)[C@@H](Cc1ccc2ccccc2c1)NC(=O)C1CCNCC1 [(inip) b b B amide] (H-[Inp][d2Nal][d2Nal][2Nal]-NH2)	0.1	50			
NCCCC[C@H](NC(=O)[C@H](Cc1ccccc1)NC(=O)[C@@H](Cc1ccc2ccccc2c1)NC(=O)[C@@H](Cc1ccc2ccccc2c1)NC(=O)C1CCNCC1)C(=O)N[C@@H](Cc1ccc(O)cc1)C(N)=O [(inip) b b F K Y amide] (H-[Inp][d2Nal][d2Nal]FKY-NH2)			0.43	1	
COC(=O)[C@H](Cc1ccccc1)NC(=O)[C@@H](Cc1ccc2ccccc2c1)NC(=O)[C@@H](Cc1ccc2ccccc2c1)NC(=O)C1CCNCC1 [(inip) b b F Me ester] (H-[Inp][d2Nal][d2Nal]F-OMe)	2.8	2			
O=C(N[C@H](Cc1ccc2ccccc2c1)C(=O)N[C@H](Cc1ccc2ccccc2c1)C(=O)N[C@@H](Cc1ccccc1)C(=O)O)C1CCNCC1 [(inip) b b F acid, (inip)-DβNal-DβNal-Phe] (H-[Inp][d2Nal][d2Nal]F-OH)	0.2	2			
NC(=O)CCNC(=O)[C@H](Cc1ccccc1)NC(=O)[C@@H](Cc1ccc2ccccc2c1)NC(=O)[C@@H](Cc1ccc2ccccc2c1)NC(=O)C1CCNCC1 [(inip) b b F bA amide] (H-[Inp][d2Nal][d2Nal]F[βAla]-NH2)			0.2	2	
CNC(=O)[C@H](Cc1ccccc1)NC(=O)[C@@H](Cc1ccc2ccccc2c1)NC(=O)[C@@H](Cc1ccc2ccccc2c1)NC(=O)C1CCNCC1 [(inip) b b F mam] (H-[Inp][d2Nal][d2Nal]F-NHMe)			2	2	
CC(C)(C)NC(=O)[C@H](Cc1ccccc1)NC(=O)[C@@H](Cc1ccc2ccccc2c1)NC(=O)[C@@H](Cc1ccc2ccccc2c1)NC(=O)C1CCNCC1 [(inip) b b F tbm] (H-[Inp][d2Nal][d2Nal]F-NHtBu)			10	10	
NCCC[C@H](NC(=O)[C@@H](Cc1ccc2ccccc2c1)NC(=O)[C@@H](Cc1ccc2ccccc2c1)NC(=O)C1CCNCC1)C(N)=O [(inip) b b O amide] (H-[Inp][d2Nal][d2Nal][Orn]-NH2)	5.9	1			
